“And” between values parts separate entries of the source, which are not always exact repeats. Equal entries are not always repeated.
Tested on: LG0567-F671-PDC complex spheroids viability
Assay: Anticancer human tumor LG0567-F671-PDC patient-derived lung adenocarcinoma cell line growth inhibition [RAS]
Details: for viability, T/C: stronger effect = lower value
Method in brief: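 Agents were tested in combination matrices in half-log decrements from a top concentration at or near clinical Cmax (10 microM if undetermined). Targets were multi-cell spheroids of tumour lines plus HUVEC and MSC stromal cells.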

[1] = curve of first compound, second compound 0.0316 µM
[2] = curve of first compound, second compound 0.1 µM
[3] = curve of first compound, second compound 0.316 µM
[4] = curve of first compound, second compound 1 µM
[5] = curve of first compound, second compound 3.16 µM
[6] = curve of first compound, second compound 10 µM
[7] = second compound 0.0316 µM, first compound 0.0316 µM
[8] = second compound 0.0316 µM, first compound 0.1 µM
[9] = second compound 0.0316 µM, first compound 0.316 µM
[10] = second compound 0.0316 µM, first compound 1 µM
[11] = second compound 0.0316 µM, first compound 3.16 µM
[12] = second compound 0.0316 µM, first compound 10 µM
[13] = second compound 0.1 µM, first compound 0.0316 µM
[14] = second compound 0.1 µM, first compound 0.1 µM
[15] = second compound 0.1 µM, first compound 0.316 µM
[16] = second compound 0.1 µM, first compound 1 µM
[17] = second compound 0.1 µM, first compound 3.16 µM
[18] = second compound 0.1 µM, first compound 10 µM
[19] = second compound 0.316 µM, first compound 0.0316 µM
[20] = second compound 0.316 µM, first compound 0.1 µM
[21] = second compound 0.316 µM, first compound 0.316 µM
[22] = second compound 0.316 µM, first compound 1 µM
[23] = second compound 0.316 µM, first compound 3.16 µM
[24] = second compound 0.316 µM, first compound 10 µM
[25] = second compound 1 µM, first compound 0.0316 µM
[26] = second compound 1 µM, first compound 0.1 µM
[27] = second compound 1 µM, first compound 0.316 µM
[28] = second compound 1 µM, first compound 1 µM
[29] = second compound 1 µM, first compound 3.16 µM
[30] = second compound 1 µM, first compound 10 µM
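Further: spheroids exposed to compound for seven days before readout.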
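Wherever IC50 is given: luminescence signal used as a proxy for viable cells.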

In the case of `C[C@@H](NC(=O)c1ncnc(N)c1Cl)c1ncc(C(=O)Nc2cc(C(F)(F)F)c(Cl)cn2)s1` + C#Cc1c(F)ccc2cc(O)cc(-c3ncc4c(N5CC6CCC(C5)N6)nc(OCC56CCCN5CC(F)C6)nc4c3F)c12, the IC50 [1] is reported as greater than 10000 nM, the IC50 [2] is reported as greater than 10000 nM and the IC50 [3] is reported as 7540 nM. The IC50 [4] was less than 31.6 nM, the IC50 [5] was less than 31.6 nM and the IC50 [6] was less than 31.6 nM. The viability, T/C [7] was 99.1%, the viability, T/C [8] was 100% and the viability, T/C [9] was 125%. It also gave a viability, T/C [10] of 103%, a viability, T/C [11] of 94.9% and a viability, T/C [12] of 56.1%. It also gave a viability, T/C [13] of 81.2%, a viability, T/C [14] of 105% and a viability, T/C [15] of 88.8%. The viability, T/C [16] was 92.8%, the viability, T/C [17] was 82% and the viability, T/C [18] was 57%. It also gave a viability, T/C [19] of 73.5%, a viability, T/C [20] of 80.9% and a viability, T/C [21] of 74.2%. For the same compound, the viability, T/C [22] was 67.7%, the viability, T/C [23] was 67% and the viability, T/C [24] was 44.7%. The viability, T/C [25] was 40.5%, the viability, T/C [26] was 43.7% and the viability, T/C [27] was 52.5%. For the same compound, the viability, T/C [28] was 42.5%, the viability, T/C [29] was 51.8% and the viability, T/C [30] was 34%. For the same compound, the viability, T/C (second compound 3.16 µM, first compound 0.0316 µM) was 26.1%, the viability, T/C (second compound 3.16 µM, first compound 0.1 µM) was 28.6% and the viability, T/C (second compound 3.16 µM, first compound 0.316 µM) was 29.2%. For the same compound, the viability, T/C (second compound 3.16 µM, first compound 1 µM) was 25.6%, the viability, T/C (second compound 3.16 µM, first compound 3.16 µM) was 26.6% and the viability, T/C (second compound 3.16 µM, first compound 10 µM) was 23.2%. For the same compound, the viability, T/C (second compound 10 µM, first compound 0.0316 µM) was 14.9%, the viability, T/C (second compound 10 µM, first compound 0.1 µM) was 17.1% and the viability, T/C (second compound 10 µM, first compound 0.316 µM) was 16.5%. For the same compound, the viability, T/C (second compound 10 µM, first compound 1 µM) was 19.4%, the viability, T/C (second compound 10 µM, first compound 3.16 µM) was 21.2% and the viability, T/C (second compound 10 µM, first compound 10 µM) was 17.9%.
With `CCC(CC)c1cc(NC2CCC(N)C2)n2nccc2n1` (stereo not given) the viability, T/C (compound 0.0316 µM) was 101% [middle of 4 runs], the viability, T/C (compound 0.1 µM) was 106% [middle of 4 runs] and the viability, T/C (compound 0.316 µM) was 100% and 103% (2×) and 138%. For the same compound, the viability, T/C (compound 1 µM) was 111% and 103% (2×) and 118%, the viability, T/C (compound 3.16 µM) was 5.03% [middle of 4 runs] and the viability, T/C (compound 10 µM) was 0.67% [middle of 4 runs]. For the same compound, the IC50 (curve of compound) was 1.86 µM [middle of 4 runs].
Compound `CCc1c2c(nc3ccc(O)cc13)-c1cc3c(c(=O)n1C2)COC(=O)[C@]3(O)CC` + C#Cc1c(F)ccc2cc(O)cc(-c3ncc4c(N5CC6CCC(C5)N6)nc(OCC56CCCN5CC(F)C6)nc4c3F)c12 has an IC50 [1] of 16.1 nM, an IC50 [2] of 11.7 nM and an IC50 [3] of 2.33 nM. The IC50 [4] was less than 0.949 nM, the IC50 [5] was less than 0.949 nM and the IC50 [6] was less than 0.949 nM. It also gave a viability, T/C (second compound 0.0316 µM, first compound 0.000949 µM) of 82.4%, a viability, T/C (second compound 0.0316 µM, first compound 0.003 µM) of 67.4% and a viability, T/C (second compound 0.0316 µM, first compound 0.00949 µM) of 56.8%. It also gave a viability, T/C (second compound 0.0316 µM, first compound 0.03 µM) of 44.4%, a viability, T/C (second compound 0.0316 µM, first compound 0.0949 µM) of 23.6% and a viability, T/C (second compound 0.0316 µM, first compound 0.3 µM) of 6.15%. The viability, T/C (second compound 0.1 µM, first compound 0.000949 µM) was 73.3%, the viability, T/C (second compound 0.1 µM, first compound 0.003 µM) was 61% and the viability, T/C (second compound 0.1 µM, first compound 0.00949 µM) was 54.8%. For the same compound, the viability, T/C (second compound 0.1 µM, first compound 0.03 µM) was 38.6%, the viability, T/C (second compound 0.1 µM, first compound 0.0949 µM) was 22.4% and the viability, T/C (second compound 0.1 µM, first compound 0.3 µM) was 7.9%. For the same compound, the viability, T/C (second compound 0.316 µM, first compound 0.000949 µM) was 50.4%, the viability, T/C (second compound 0.316 µM, first compound 0.003 µM) was 53.3% and the viability, T/C (second compound 0.316 µM, first compound 0.00949 µM) was 41%. The viability, T/C (second compound 0.316 µM, first compound 0.03 µM) was 29.8%, the viability, T/C (second compound 0.316 µM, first compound 0.0949 µM) was 20.3% and the viability, T/C (second compound 0.316 µM, first compound 0.3 µM) was 7.35%. It also gave a viability, T/C (second compound 1 µM, first compound 0.000949 µM) of 30.5%, a viability, T/C (second compound 1 µM, first compound 0.003 µM) of 29.1% and a viability, T/C (second compound 1 µM, first compound 0.00949 µM) of 26.7%. The viability, T/C (second compound 1 µM, first compound 0.03 µM) was 20.9%, the viability, T/C (second compound 1 µM, first compound 0.0949 µM) was 13.9% and the viability, T/C (second compound 1 µM, first compound 0.3 µM) was 6.24%. It also gave a viability, T/C (second compound 3.16 µM, first compound 0.000949 µM) of 20%, a viability, T/C (second compound 3.16 µM, first compound 0.003 µM) of 15.3% and a viability, T/C (second compound 3.16 µM, first compound 0.00949 µM) of 15.6%. For the same compound, the viability, T/C (second compound 3.16 µM, first compound 0.03 µM) was 11.2%, the viability, T/C (second compound 3.16 µM, first compound 0.0949 µM) was 8.88% and the viability, T/C (second compound 3.16 µM, first compound 0.3 µM) was 4.31%. The viability, T/C (second compound 10 µM, first compound 0.000949 µM) was 11%, the viability, T/C (second compound 10 µM, first compound 0.003 µM) was 10% and the viability, T/C (second compound 10 µM, first compound 0.00949 µM) was 10.1%. It also gave a viability, T/C (second compound 10 µM, first compound 0.03 µM) of 6.59%, a viability, T/C (second compound 10 µM, first compound 0.0949 µM) of 4.97% and a viability, T/C (second compound 10 µM, first compound 0.3 µM) of 3.6%.
`CC(Nc1ccc2c(c1)OCCn1cc(N3C(=O)OCC3C(F)F)nc1-2)C(N)=O` (stereo not given) + C=CC(=O)N1CCN(c2nc(OCC3CCCN3C)nc3c(F)c(-c4nc(N)cc(C)c4C(F)(F)F)c(Cl)cc23)C(C)C1 was tested, and the IC50 (curve of first compound, second compound 0.00316 µM) was less than 31.6 nM, the IC50 (curve of first compound, second compound 0.01 µM) was less than 31.6 nM and the IC50 [1] was less than 31.6 nM. The IC50 [2] was less than 31.6 nM, the IC50 [3] was less than 31.6 nM and the IC50 [4] was less than 31.6 nM. For the same compound, the viability, T/C (second compound 0.00316 µM, first compound 0.0316 µM) was 15.2%, the viability, T/C (second compound 0.00316 µM, first compound 0.1 µM) was 10.8% and the viability, T/C (second compound 0.00316 µM, first compound 0.316 µM) was 10.1%. It also gave a viability, T/C (second compound 0.00316 µM, first compound 1 µM) of 7.83%, a viability, T/C (second compound 0.00316 µM, first compound 3.16 µM) of 7.01% and a viability, T/C (second compound 0.00316 µM, first compound 10 µM) of 5.88%. It also gave a viability, T/C (second compound 0.01 µM, first compound 0.0316 µM) of 12%, a viability, T/C (second compound 0.01 µM, first compound 0.1 µM) of 8.85% and a viability, T/C (second compound 0.01 µM, first compound 0.316 µM) of 8.39%. For the same compound, the viability, T/C (second compound 0.01 µM, first compound 1 µM) was 5.85%, the viability, T/C (second compound 0.01 µM, first compound 3.16 µM) was 5.99% and the viability, T/C (second compound 0.01 µM, first compound 10 µM) was 4.79%. For the same compound, the viability, T/C [7] was 10.2%, the viability, T/C [8] was 9.26% and the viability, T/C [9] was 7.97%. The viability, T/C [10] was 5.73%, the viability, T/C [11] was 5.76% and the viability, T/C [12] was 4.64%. For the same compound, the viability, T/C [13] was 13%, the viability, T/C [14] was 8.09% and the viability, T/C [15] was 6.28%. It also gave a viability, T/C [16] of 5.63%, a viability, T/C [17] of 5.99% and a viability, T/C [18] of 4.82%. It also gave a viability, T/C [19] of 10.5%, a viability, T/C [20] of 8.03% and a viability, T/C [21] of 7.03%. For the same compound, the viability, T/C [22] was 5.34%, the viability, T/C [23] was 6.43% and the viability, T/C [24] was 5.3%. It also gave a viability, T/C [25] of 11.4%, a viability, T/C [26] of 9.66% and a viability, T/C [27] of 6.71%. It also gave a viability, T/C [28] of 6.57%, a viability, T/C [29] of 7.01% and a viability, T/C [30] of 5.23%.
In the case of `Nc1ccn(C2OC(CO)C(O)C2(F)F)c(=O)n1` (stereo not given), the viability, T/C (compound 0.00316 µM) is reported as 93.3% [middle of 4 runs], the viability, T/C (compound 0.01 µM) is reported as 81% [middle of 4 runs] and the viability, T/C (compound 0.0316 µM) is reported as 79.1% [middle of 4 runs]. The viability, T/C (compound 0.1 µM) was 71.7% [middle of 4 runs], the viability, T/C (compound 0.316 µM) was 69.5% [middle of 4 runs] and the viability, T/C (compound 1 µM) was 61.7% [middle of 4 runs]. The IC50 (curve of compound) was greater than 1000 nM.

Reference: PubChem BioAssay AID2060889 (Molecular Pharmacology Branch, DTP, NCI, 2025)
